Experimental data published in patent US7601501B2, “Controlling osteogenesis by inhibition of osteogenic suppressors” (The Scripps Research Institute, priority 2006, dated 2009).
“Also recorded” adds a separate entry of the source.

Columns and labels:
[1] = tested on: human mesenchymal stem cells (hMSCs); experiment: Compound treatment: adipogenic differentiation / cell fate switch of hMSCs; format: cell-based; settings: for differentiation of hMSCs into mature adipocytes: combined treatment with dexamethasone; for adipogenic differentiation of hMSCs promoted by compound: especially in the presence of dexamethasone (DEX); for cell fate switch from osteogenic to adipogenic: hMSCs treated with the OS media
Description: Cells were rinsed with PBS twice, fixed in 10% formalin solution for 20 minutes, rinsed with PBS twice and dH2O once, washed with propylene glycol for 5 minutes, and stained with Oil red in propylene glycol (I2722A, Newcomer Supply) for 30 minutes. Cells were then washed with 85% propylene glycol for 5 minutes, rinsed with dH2O 3 times and preserved in 50% glycerol.
(§1) 8-CPT-cAMP, Na (cat# 116812), 5-Iodotubercidin (cat# 407900), Prostaglandin E2 (PGE2, cat# 538904), SB 202190 (cat# 559388) and U0126 (cat# 662005) were purchased from Calbiochem; N6,2′-O-Dibutyryl-cAMP (cat# D0260-5MG), forskolin (cat# F6886), ascorbic acid 2-phosphate (cat# 49752-10G), β-glycerophosphate (G-6251), dexamethasone (D8893), 3-isobutyl-1-methylxanthine (IBMX, I5879) and Insulin (I 9278) were purchased from Sigma/Aldrich/Fluka.
(§2) Since the targeted genes are all positively involved in intracellular cAMP signaling, we tested the effect of two compounds of opposing function on cAMP production on osteogenic differentiation of hMSCs, ADK inhibitor 5-iodotubercidin and ADCY activator forskolin (Cottam, H. B. et al., J Med Chem 36:3424-3430 (1993); de Souza, N. J. et al., Med Res Rev 3:201-219 (1983)). […] ATP has been shown as a ligand for P2RY11 receptor (Communi et al., 1997). […] The present observations are consistent with the conclusion that […] in hMSCs, and vice versa.

[2] = tested on: human mesenchymal stem cells (hMSCs); experiment: Compound treatment: OS-induced osteogenic differentiation of hMSCs (ALP / alizarin red staining); format: cell-based; settings: for osteogenic effect of the OS media on hMSCs: compound combined with OS treatment, ALP and/or alizarin red staining
Description: as §1, §2

[3] = tested on: human mesenchymal stem cells (hMSCs); experiment: Alizarin red staining for calcium phosphate deposits (ECM mineralization, bone cell maturation); format: cell-based; settings: for intensity of alizarin red staining (bone cell maturation), 3+9OS: OS started three days after siRNA transfection and continued for 9 days
Description: Cells were rinsed with PBS twice, stained in alizarin red solution (cat# vw3611-2, VWR) for 8 minutes at room temperature, washed with PBS again, fixed in 10% formalin solution (cat# HT-5014, Sigma) for 20 minutes, then rinsed with water and air dried.
Bone cell maturation is accompanied by extracellular matrix (ECM) mineralization (John Bilezikian et al., Principles of bone biology, Vol 1, 2nd edn: Academic Press) (2002)). […] […] These observations are consistent with the conclusion that the targeted genes of the ten effective hit siRNAs not only play inhibitory roles in osteogenic specification of hMSCs, but also in bone cell maturation. […] Furthermore, in osteoporotic patients, the number of adipocytes was increased in the marrow, implying a change of cell fate disposition from osteoblast lineage to adipocyte lineage (Justesen, J. et al., Biogerontology 2:165-171 (2001); Meunier, P. et al., Clin Orthop Relat Res 80:147-154 (1971)). We therefore examined the effect of our hit siRNAs on adipogenic differentiation of hMSCs by combined treatment with an adipogenic inducing cocktail (100 μg/ml IBMX, 1 μM DEX and 10 μg/ml insulin).

CREB = experiment: Western blot of phospho-CREB in transfected hMSCs; format: cell-based, human; settings: 3 days after transfection, compared to siCon treated or untreated
Description: Cell lyses buffer contains 20 mM Tris pH8.0, 1 mM EDTA, 150 mM NaCl and 0.5% NP-40, and before usage, protease inhibitor cocktail (Cat# p8340, Sigma, 1:100 dilution) and phosphatase inhibitor cocktail 2 (Cat# p5726, sigma, 1:100 dilution) were added. Proteins (60 μg/well) were separated in 12% Novex Tris-Glycine gel (Cat# EC6008 box, Invitrogen) and transferred to Nitrocellulose membrane (Cat# LC2001, Invitrogen) using the XCell II blot module system (Cat# EI9051, Invitrogen). The membrane was blocked in 5% milk/PBST for 1 hour at room temperature, incubated over night at 4 degree with primary antibody, washed 3 times with PBST (0.05% Tween 20 in PBS), followed by one hour incubation with secondary antibody in 5% milk/PBST and 3 times wash with PBST at room temperature. For antibody against pCREB however, PBST was substituted with PBS in all steps except for the last one. Antibody-bound proteins were detected utilizing ECL Western blotting detection reagent (Amersham Biosciences).
Anti-phospho-CREB was purchased from Upstate Biotechnology (cat# 06-519); Anti-phospho-p38 was purchased from Cell signaling technology (cat# 9910).
To find out whether CREB (cAMP Responding Element Binding protein), a common downstream effector of cAMP signaling pathway, is involved in mediating cAMP signaling controlled differentiation of hMSCs, we checked the expression level of the active form of CREB proteins in cells 3 days after siP2RY11, siADK, siGNAS, siSLC12a2 or siCon transfection. […] To further examine the role of CREB in osteogenesis and adipogenesis, a synthetic 24-mer CRE decoy oligonucleotide that can compete with endogenous CRE enhancers for binding proteins was transfected into hMSCs (Park, Y. G. et al., J Biol Chem 274:1573-1580 (1999)), which were then subjected to the treatment of osteogenic or adipogenic induction media.

Molecule: Nc1ncnc2c1nc(Sc1ccc(Cl)cc1)n2[C@@H]1O[C@@H]2COP(=O)(O)O[C@H]2[C@H]1O [8-CPT-cAMP]
- differentiation of hMSCs into mature adipocytes [1]: sufficient to differentiate hMSCs into mature adipocytes
- adipogenic differentiation of hMSCs promoted by compound [1]: promoted hMSCs to undergo adipogenic differentiation
- cell fate switch from osteogenic to adipogenic [1]: could switch cell fate commitment from osteogenic to adipogenic
- cell fate switch from osteogenic to adipogenic ([1]; listed as CPT-cAMP): could switch cell fate determination from osteogenic to adipogenic differentiation

Molecule: Nc1ncnc2c1ncn2[C@@H]1O[C@H](COP(=O)(O)OP(=O)(O)OP(=O)(O)O)[C@@H](O)[C@H]1O [ATP]
- number of cells undergoing adipogenic differentiation ([1]; dosage dependent manner): slightly increases
- siP2RY11 and siSLC12a2 induced osteogenesis in combination with OS (ALP staining) ([2]; OS and ATP added on the third day after siRNA transfection, continued for a week): dosage-dependent inhibitory effect
- osteogenic effect of the OS media on hMSCs [2]: inhibited; also recorded: dosage-dependent inhibitory effect

Molecule: CCCC(=O)Nc1ncnc2c1ncn2[C@@H]1O[C@@H]2COP(=O)(O)O[C@H]2[C@H]1OC(=O)CCC [DB-cAMP, N6,2′-dibutyryl-cAMP]
- differentiation of hMSCs into mature adipocytes [1]: sufficient to differentiate hMSCs into mature adipocytes
- adipogenic differentiation of hMSCs promoted by compound [1]: promoted hMSCs to undergo adipogenic differentiation

Molecule: CC(C)Cn1c(=O)n(C)c(=O)c2[nH]cnc21 [IBMX, 3-isobutyl-1-methylxanthine]
- adipogenic differentiation of hMSCs promoted by compound [1]: promoted hMSCs to undergo adipogenic differentiation
- cell fate switch from osteogenic to adipogenic [1]: could switch cell fate determination from osteogenic to adipogenic differentiation

Molecule: COc1cccc(-c2cc(=O)c3ccccc3o2)c1N [PD98059]
- osteogenic effect of the OS media on hMSCs [2]: inhibited the osteogenic inducing effect of OS

Molecule: CCCCC[C@H](O)/C=C/[C@H]1[C@H](O)CC(=O)[C@@H]1C/C=C\CCCC(=O)O [PGE2, Prostaglandin E2]
- cell fate switch from osteogenic to adipogenic [1]: could switch cell fate determination from osteogenic to adipogenic differentiation

Molecule: Oc1ccc(-c2nc(-c3ccncc3)c(-c3ccc(F)cc3)[nH]2)cc1 [SB202190]
- osteogenic effect of the OS media on hMSCs [2]: inhibited the osteogenic inducing effect of OS

Molecule: CCCAGGUCUCCGAUGAACU (siRNA; listed as RNA, chemistry not fully specified) [siBCL212, siRNA targeting BCL2-like 2]
- intensity of alizarin red staining (bone cell maturation), 3+9OS [3]: modest enhancement

Molecule: CCCGAAAACAUUGCUAGCA (siRNA; listed as RNA, chemistry not fully specified) [siGBDR1, siRNA targeting putative glialblastoma cell differentiation-related]
- intensity of alizarin red staining (bone cell maturation), 3+9OS [3]: dramatically enhanced

Molecule: CCUCUUCGUGGCUACAUCU (siRNA; listed as RNA, chemistry not fully specified) [siSLC12a2, siRNA targeting solute carrier family 12, member 2]
- level of pCREB protein (Western blot) (CREB): increased
- intensity of alizarin red staining (bone cell maturation), 3+9OS [3]: dramatically enhanced

Molecule: GCCACACAAAGCAGCAACA (siRNA; listed as RNA, chemistry not fully specified) [siADK, siRNA targeting adenosine kinase]
- level of pCREB protein (Western blot) (CREB): increased
- intensity of alizarin red staining (bone cell maturation), 3+9OS [3]: dramatically enhanced
- intensity of alizarin red staining, sequential siRNA then OS ([3]; siRNA initial 2-4 days followed by OS (2+6OS, 3+5OS, 4+4OS), vs siCon): clearly enhanced the intensity of alizarin red staining; also recorded: enhancing effect

Molecule: GGAGAUCAACAAGCAUUCA (siRNA; listed as RNA, chemistry not fully specified) [siADCY8, siRNA targeting adenylate cyclase 8]
- intensity of alizarin red staining (bone cell maturation), 3+9OS [3]: weak enhancement

Molecule: UCGAAGAUUGAGGACUACU (siRNA; listed as RNA, chemistry not fully specified) [siGNAS, siRNA targeting GNAS complex locus]
- level of pCREB protein (Western blot) (CREB): increased
- intensity of alizarin red staining (bone cell maturation), 3+9OS [3]: dramatically enhanced

Molecule: UGCCAAAGAGGAUGUACAU (siRNA; listed as RNA, chemistry not fully specified) [siTBX3, siRNA targeting T-box 3 (ulnar mammary syndrome)]
- intensity of alizarin red staining (bone cell maturation), 3+9OS [3]: no significant effect

Molecule: UGCGAGCCAAGAUGGACAA (siRNA; listed as RNA, chemistry not fully specified) [siKCNT1, siRNA targeting potassium channel, subfamily T, member 1]
- intensity of alizarin red staining (bone cell maturation), 3+9OS [3]: dramatically enhanced

Molecule: UGCGGGUGCUCAACGUGGA (siRNA; listed as RNA, chemistry not fully specified) [siP2RY11, siRNA targeting purinergic receptor P2Y, G-protein coupled, 11]
- level of pCREB protein (Western blot) (CREB): increased
- intensity of alizarin red staining (bone cell maturation), 3+9OS [3]: dramatically enhanced

Molecule: UGUGCUACACAGUCAUUAC (siRNA; listed as RNA, chemistry not fully specified) [siBIRC4, siRNA targeting baculoviral IAP repeat-containing 4]
- intensity of alizarin red staining (bone cell maturation), 3+9OS [3]: weak enhancement
